“Also recorded” adds a separate entry of the source.
Experiments:
Huh-7 cells = assay: Oil-Red O staining and lipid accumulation in steatosis-induced Huh-7 cells; assay type: cell-based; details: Huh-7 cells pretreated with OA/PA (R-28: OA); 10, 20 or 40 μM (R-28: 2, 10, 50 μM); 24 hours
Experimental: Huh-7 cells were maintained in a RPMI1640 medium containing 10% FBS, 100 U/mL of penicillin, and 100 μg/mL of streptomycin. All reagents were purchased from Life Technologies Corporation (Grand Island, N.Y., USA).
The Huh-7 cells were incubated under an atmosphere containing 5% CO2 at 37° C.
In Experimental Example 4, the Huh-7 cells were plated in 24 wells at 3×10^5 cells/mL and incubated under an atmosphere containing 5% CO2 at 37° C.
(§1) One day later, the cell density approached about 80 to 90%. The medium was changed to an FBS-free RPMI1640 medium, and incubated under an atmosphere containing 5% CO2 at 37° C. for 24 hours.
Huh-7 cells of each well, excluding control cells, were pretreated with an OA/PA mixture (however, R-28 is OA) for 1 hour to induce steatosis. Control cells were pretreated with 1% FA-free BSA.
Each well was treated with 10 μM, 20 μM, or 40 μM of a test compound (however, for R-28, 2 μM, 10 μM and 50 μM), and cultured for 24 hours. The control cells and the OA/PA-treated cells were treated with DMSO. […]
Images were obtained from a Cytation 5 Cell Imaging Multi-Mode Reader (BioTek, Winooski, Vt., USA). […]
200 μL of isopropyl alcohol was added to each well, and the cells were collected in a 96-well plate. Absorbance was measured at 540 nm, and data was analyzed.

Fgf21 mRNA = assay: qRT-PCR Fgf21 mRNA level in steatosis-induced Huh-7 cells; assay type: cell-based, Human; details: steatosis-induced (OA/PA) Huh-7 cells; 10 μM; 24 hours
Experimental: In Experimental Example 5, the Huh-7 cells were plated in 6 wells at 4×10^5 cells/mL and incubated under an atmosphere containing 5% CO2 at 37° C.
as §1
Huh-7 cells of each well, excluding control cells, were pretreated with an OA/PA mixture for one hour to induce steatosis. The control cells were pretreated with 1% FA-free BSA.
Each well was treated with 10 μM of a test compound, and then the cells were incubated for 24 hours. The control cells and OA/PA-treated cells were treated with DMSO. Cells of a positive control were treated with 10 μM of resveratrol, 10 μM of piperine, and 10 μM of YU2014. The medium was entirely aspirated, and the cells were washed with PBS (phosphate buffered saline, Corning, Manassas, Va., USA) two times.
Total RNA was extracted using a RNeasy RNA isolation kit (Qiagen, Hilden, Germany).
10 μL of β-mercaptoethanol (Sigma-Aldrich) per 1 mL of lysis buffer was added, thereby preparing an RNA lysis buffer. […]
An RNA concentration was measured at O.D. 260 nm using a nanophotometer N60 (Implen, Munich, Germany). The concentration and purity of RNA were measured at O.D. 260/280 nm and calculated as a ratio. […]
Quantitative analyses for the genes in Table 3 were performed.

CSc1ccc(/C=C/C=C/C(=O)N2CCCCC2)cc1 [YU2014, (2E,4E)-5-(4-(methylthio)phenyl)-1-(piperidine-1-yl)penta-2,4-dien-1-one]
degree of lipid staining (ORO, absorbance at 540 nm, FIGS. 5-8) (Huh-7 cells): not greatly changed | Fgf21 mRNA level (FIG. 12) (Fgf21 mRNA): almost no increase; also recorded: no effect
